Patent US9416154B2, “5′-substituted nucleoside derivatives and methods of use thereof for the treatment of viral diseases” (priority 2011, dated 2016)

Experiments:
[1] = molecular target: HCV NS5B RNA-dependent RNA polymerase (1b-BKΔ55) (Hepatitis C virus genotype 1b (isolate BK) (HCV), UniProt P26663); assay: HCV NS5B polymerase inhibition assay (radiolabeled nucleotide incorporation); assay type: biochemical; conditions: 5 nM NS5B (1b-BKΔ55), [33P]-CTP incorporation, room temperature 1 hour
Description: The ability of the nucleoside triphosphate derivatives to inhibit the enzymatic activity of the HCV NS5B RNA-dependent RNA polymerase was measured in a radiolabeled nucleotide incorporation assay modified from the method described in International Publication No. WO2002/057287. Briefly, 50 μL reactions containing 20 mM HEPES (pH 7.3), 7.5 mM DTT, 20 units/mL RNasIN, 1 μM each of ATP, GTP, UTP and CTP, 20 μCi/mL [^33P]-CTP, 10 mM MgCl2, 60 mM NaCl, 100 μg/ml BSA, 0.021 μM DCoH heteropolymer RNA template and 5 nM NS5B (1b-BKΔ55) enzyme were incubated at room temperature for 1 hour. Assay was terminated by the addition of 500 mM EDTA (50 μL). The reaction mixture was transferred to a Millipore DE81 filter plate and the incorporation of labeled CTP was determined using Packard TopCount. Compound IC50 values were calculated from experiments with 10 serial 3-fold dilutions of the inhibitor in duplicate.

[2] = test system: Huh 7 hepatoma cells containing the subgenomic HCV replicon; assay: Cytotoxicity (MTS assay or GAPDH RNA readout); assay type: cell-based; conditions: replicon-containing Huh 7 cells, 3-day incubation, MTS or GAPDH RNA readout; read-out: 1b CC50
Description: The effect of the nucleoside derivatives on the proliferation and metabolism of Huh 7 hepatoma cells containing the subgenomic HCV replicon was measured using the MTS assay. Briefly, cells were seeded and dosed with compounds exactly as described in Example 13 above, for replicon EC50 determination. After a 3-day compound incubation period, the MTS assay was performed in accordance with the manufacturer's protocol for the CellTiter 96 Aqueous One Solution Cell Proliferation Assay (Promega, Catalog #G358). Alternatively, after a 3-day compound incubation, the amount of glyceraldehyde-3-phosphate dehydrogenase (GAPDH) RNA in replicon-containing Huh 7 cells was determined using qRT-PCR. CC50 values were derived from 10 serial 2-fold dilutions of the inhibitor in duplicate that yielded 50% inhibition of the MTS or GAPDH RNA readout by comparison with cells treated with vehicle control.

HCV replicon (1b) = assay: Cell-based HCV replicon assay; conditions: read-out: 1b EC50; replicon cells, 3-day incubation, replicon RNA by real time PCR (Taqman)
Description: To measure cell-based anti-HCV activity of selected compounds of the present invention, replicon cells were seeded at 5000 cells/well in 96-well collagen I-coated Nunc plates in the presence of the test compound. Various concentrations of test compound, typically in 10 serial 2-fold dilutions, were added to the assay mixture, with the starting concentration ranging from 250 μM to 1 μM. The final concentration of dimethylsulfoxide was 0.5%, fetal bovine serum was 5%, in the assay media. Cells were harvested on day 3 by the addition of 1× cell lysis buffer (Ambion cat #8721). The replicon RNA level was measured using real time PCR (Taqman assay). The amplicon was located in 5B. The PCR primers were: 5B.2F, ATGGACAGGCGCCCTGA (SEQ ID. NO. 1); 5B.2R, […] (SEQ ID. NO. 2); the probe sequence was FAM-labeled CACGCCATGCGCTGCGG (SEQ ID. NO. 3). GAPDH RNA was used as endogenous control and was amplified in the same reaction as NS5B (multiplex PCR) using primers and VIC-labeled probe recommended by the manufacturer (PE Applied Biosystem). The real-time RT-PCR reactions were run on ABI PRISM 7900HT Sequence Detection System using the following program: 48° C. for 30 minutes, 95° C. for 10 minutes, 40 cycles of 95° C. for 15 sec, 60° C. for 1 minute. The ΔCT values (CT5B-CTGAPDH) were plotted against the concentration of test compound and fitted to the sigmoid dose-response model using XLfit4 (MDL). EC50 was defined as the concentration of inhibitor necessary to achieve ΔCT=1 over the projected baseline; EC90 the concentration necessary to achieve ΔCT=3.2 over the baseline. Alternatively, to quantitate the absolute amount of replicon RNA, a standard curve was established by including serially diluted T7 transcripts of replicon RNA in the Taqman assay. All Taqman reagents were from PE Applied Biosystems. Such an assay procedure was described in detail in e.g. Malcolm et al., Antimicrobial Agents and Chemotherapy 50: 1013-1020 (2006).

HCV NS5B RNA-dependent RNA polymerase (1b-BKΔ55), sequence (P26663 2420-2955): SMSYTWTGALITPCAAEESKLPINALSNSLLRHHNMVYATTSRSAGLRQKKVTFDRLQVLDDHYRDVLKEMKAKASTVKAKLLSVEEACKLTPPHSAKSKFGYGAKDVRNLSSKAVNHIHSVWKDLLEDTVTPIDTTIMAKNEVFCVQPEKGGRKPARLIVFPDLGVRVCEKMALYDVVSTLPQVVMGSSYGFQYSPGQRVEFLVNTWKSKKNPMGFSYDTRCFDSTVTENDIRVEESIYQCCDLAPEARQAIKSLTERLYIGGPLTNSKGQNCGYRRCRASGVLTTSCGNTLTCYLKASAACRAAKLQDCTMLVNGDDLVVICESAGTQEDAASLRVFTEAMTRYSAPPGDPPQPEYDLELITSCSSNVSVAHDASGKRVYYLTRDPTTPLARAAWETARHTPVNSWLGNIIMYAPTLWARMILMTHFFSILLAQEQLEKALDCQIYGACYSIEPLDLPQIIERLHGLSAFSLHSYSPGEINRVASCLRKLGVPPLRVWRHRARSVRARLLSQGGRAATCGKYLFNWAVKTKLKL

| Structure (SMILES) | IC50 [1] | CC50 [2] | EC50 (HCV replicon (1b)) |
| --- | --- | --- | --- |
| CC(OP(=O)(O)OP(=O)(O)OP(=O)(O)O)[C@H]1O[C@@H](n2ccc3c(N)ncnc32)[C@](C)(F)[C@@H]1O (some centres unmarked) [Compound 15] | > 20 µM | – | – |
| C[C@@H](OP(=O)(O)OP(=O)(O)OP(=O)(O)O)[C@H]1O[C@@H](n2ccc3c(N)ncnc32)[C@](C)(O)[C@@H]1O [Compound 36] | 65 µM | – | – |
| C[C@H](OP(=O)(O)OP(=O)(O)OP(=O)(O)O)[C@H]1O[C@@H](n2ccc3c(N)ncnc32)[C@](C)(O)[C@@H]1O [Compound 37] | 40 µM | – | – |
| CCCCOC(=O)[C@H](C)NP(=O)(Oc1cccc2ccccc12)OC(C)[C@H]1O[C@@H](n2ccc3c(N)ncnc32)[C@](C)(O)[C@@H]1O (some centres unmarked) [Compound 45] | – | > 100 µM | 22 µM |
